From US20200392150A1, “Diaryl-B-Lactam Compound and Preparation Method and Pharmaceutical Use Thereof” (Fudan University, priority 2016, published 2020)

Key:
Assay in all cases: In vitro cell growth inhibition assay (MTT)
Assay type in all cases: cell-based, human
A2780 = A2780 human ovarian cancer cell line, 48 h, MTT; read-out: IC50 A2780
Protocol: (§1) 5000 tumor cells per well were seeded into 96-well plate and allowed to adhere overnight. Cells were treated with various concentrations of tested compounds or DMSO (0.2%, as negative control) for 48 h. Then, the medium along with tested compounds or DMSO was discarded and […] per well MTT containing medium (0.5 mg/mL) was added. After incubation at 37° C. for 4 h, the MTT-containing medium was replaced by DMSO (150 μL per well) to dissolve the formazan crystals. Absorbance of the resulting solution was measured by microplate reader (Biotech ELx800) at 540 nm wavelength. Growth inhibition rates were calculated with the absorbance. Half maximal inhibitory concentration (IC50) of each compound was calculated using GraphPad Prism, version 6.0.

Hela = Hela human cervical cancer cell line, 48 h, MTT; read-out: IC50 Hela
Protocol: as §1

MDA-MB-231 = MDA-MB-231 human breast cancer cell line, 48 h, MTT; read-out: IC50 MDA-MB-231
Protocol: as §1

SKOV3 = conditions: SK-OV-3; SKOV-3 human ovarian cancer cell line, 48 h, MTT; read-out: IC50 SKOV3
Protocol: as §1

Compound	IC50 (A2780) [µM]	IC50 (Hela) [µM]	IC50 (MDA-MB-231) [µM]	IC50 (SKOV3) [µM]
C=C1C(=O)N(c2cc(OC)c(OC)c(OC)c2)[C@H]1c1ccc(OC)c(OC(=O)[C@@H](NC(=O)OC(C)(C)C)C(C)C)c1 [Compound 36, (S)-2-methoxy-5-((S)-3-methylene-4-oxo-1-(3,4,5-trimethoxyphenyl)azetidin-2-yl)phenyl 2-((tert-butoxycarbonyl)amino)-3-methylbutanoate]	0.505	0.501	0.506	0.496
C=C1C(=O)N(c2cc(OC)c(OC)c(OC)c2)[C@H]1c1ccc(OC)c(OS(=O)(=O)F)c1 [Compound 107, (S)-2-methoxy-5-(3-methylene-4-oxo-1-(3,4,5-trimethoxyphenyl)azetidin-2-yl)phenyl sulfofluoridate]	0.121	0.174	0.216	0.178
C=C1C(=O)N(c2cc(OC)c(OC)c(OC)c2)[C@H]1c1ccc(OC)c(OCCCNC(=O)OCc2ccccc2)c1 [Compound 17, (S)-benzyl (3-(2-methoxy-5-(3-methylene-4-oxo-1-(3,4,5-trimethoxyphenyl)azetidin-2-yl)phenoxy)propyl)carbamate]	> 10	> 10	> 10	> 10
COc1ccc([C@@H]2[C@H](C)C(=O)N2c2cc(OC)c(OC)c(OC)c2)cc1O [Compound 101, (3S,4S)-4-(3-hydroxy-4-methoxyphenyl)-3-methyl-1-(3,4,5-trimethoxyphenyl)azetidin-2-one]	5.75	3.92	5.14	3.27
C=C1C(=O)N(c2cc(OC)c(OC)c(OC)c2)[C@H]1c1ccc(OC)c(OC(=O)c2ccccc2OC)c1 [Compound 21, (S)-2-methoxy-5-(3-methylene-4-oxo-1-(3,4,5-trimethoxyphenyl)azetidin-2-yl)phenyl 2-methoxybenzoate]	0.201	0.106	0.218	0.155
C=C1C(=O)N(c2cc(OC)c(OC)c(OC)c2)[C@@H]1c1ccc(OC)c(O)c1 [Compound 98, (R)-4-(3-hydroxy-4-methoxyphenyl)-3-methylene-1-(3,4,5-trimethoxyphenyl)azetidin-2-one]	> 20	> 20	> 20	> 20
C=C1C(=O)N(c2cc(OC)c(OC)c(OC)c2)[C@H]1c1ccc(C(C)C)cc1 [Compound 88, (S)-4-(4-isopropylphenyl)-3-methylene-1-(3,4,5-trimethoxyphenyl)azetidin-2-one]	2.12	2.21	2.55	2.47
C=C1C(=O)N(c2cc(OC)c(OC)c(OC)c2)[C@H]1c1ccc(OC)c(OS(=O)(=O)Cc2ccccc2)c1 [Compound 32, (S)-2-methoxy-5-(3-methylene-4-oxo-1-(3,4,5-trimethoxyphenyl)azetidin-2-yl)phenyl phenylmethanesulfonate]	7.34	> 20	> 20	8.66
C=C1C(=O)N(c2cc(OC)c(OC)c(OC)c2)[C@H]1c1ccc(OC)c(OCCCO)c1 [Compound 9, (S)-4-(3-(3-hydroxypropoxy)-4-methoxyphenyl)-3-methylene-1-(3,4,5-trimethoxyphenyl)azetidin-2-one]	1.54	7.47	1.92	3.03
C=C1C(=O)N(c2cc(OC)c(OC)c(OC)c2)[C@H]1c1ccc(OC)c(OS(=O)(=O)c2ccc(C)cc2)c1 [Compound 27, (S)-2-methoxy-5-(3-methylene-4-oxo-1-(3,4,5-trimethoxyphenyl)azetidin-2-yl)phenyl 4-methylbenzenesulfonate]	6.67	17.8	12.8	12.1
COc1ccc([C@H]2[C@@H](CC[Si](C)(C)C)C(=O)N2c2cc(OC)c(OC)c(OC)c2)cc1O [Compound 59, (3R,4R)-4-(3-hydroxy-4-methoxyphenyl)-1-(3,4,5-trimethoxyphenyl)-3-(2-(trimethylsilyl)ethyl)azetidin-2-one]	7.54	9.14	6.45	5.63
COc1ccc([C@H]2/C(=C/c3ccccc3)C(=O)N2c2cc(OC)c(OC)c(OC)c2)cc1O [Compound 57, (S,Z)-3-benzylidene-4-(3-hydroxy-4-methoxyphenyl)-1-(3,4,5-trimethoxyphenyl)azetidin-2-one]	2.54	4.73	3.17	2.99
C=C1C(=O)N(c2cc(OC)c(OC)c(OC)c2)[C@H]1c1ccc(OC)c(OS(=O)(=O)c2ccc(NC(C)=O)cc2)c1 [Compound 30, (S)-2-methoxy-5-(3-methylene-4-oxo-1-(3,4,5-trimethoxyphenyl)azetidin-2-yl)phenyl 4-acetamidobenzenesulfonate]	12.2	15.9	15.8	12
C=C1C(=O)N(c2cc(OC)c(OC)c(OC)c2)[C@H]1c1ccc(OC)c(OCC(=O)OC(C)(C)C)c1 [Compound 13, (S)-tert-butyl 2-(2-methoxy-5-(3-methylene-4-oxo-1-(3,4,5-trimethoxyphenyl)azetidin-2-yl)phenoxy)acetate]	> 10	> 10	> 10	> 10
C=C1C(=O)N(c2cc(OC)c(OC)c(OC)c2)[C@H]1c1ccc(OC)c(OCC(N)=O)c1 [Compound 16, (S)-2-(2-methoxy-5-(3-methylene-4-oxo-1-(3,4,5-trimethoxyphenyl)azetidin-2-yl)phenoxy)acetamide]	0.316	0.818	0.503	0.698
COc1ccc([C@H]2CC(=O)N2c2cc(OC)c(OC)c(OC)c2)cc1O [Compound 67, (R)-4-(3-hydroxy-4-methoxyphenyl)-1-(3,4,5-trimethoxyphenyl)azetidin-2-one]	0.022	0.03	0.028	0.024
C=C1C(=O)N(c2cc(OC)c(OC)c(OC)c2)[C@H]1c1ccc(OC)c(N)c1 [Compound 41, (S)-4-(3-amino-4-methoxyphenyl)-3-methylene-1-(3,4,5-trimethoxyphenyl)azetidin-2-one]	0.031	0.032	0.04	0.036
C=C1C(=O)N(c2cc(OC)c(OC)c(OC)c2)[C@H]1c1cccc(OC)c1 [Compound 86, (S)-4-(3-methoxyphenyl)-3-methylene-1-(3,4,5-trimethoxyphenyl)azetidin-2-one]	2.29	12.3	6.32	8.18
C=C1C(=O)N(c2cc(OC)c(OC)c(OC)c2)[C@H]1c1ccc(OC)c(OS(=O)(=O)c2ccc(OC)c(OC)c2)c1 [Compound 33, (S)-2-methoxy-5-(3-methylene-4-oxo-1-(3,4,5-trimethoxyphenyl)azetidin-2-yl)phenyl 3,4-dimethoxybenzenesulfonate]	12.3	12.3	13.4	15.2
COc1ccc([C@H]2/C(=C/c3ccc(C(C)(C)C)cc3)C(=O)N2c2cc(OC)c(OC)c(OC)c2)cc1O [Compound 58, (S,Z)-3-(4-(tert-butyl)benzylidene)-4-(3-hydroxy-4-methoxyphenyl)-1-(3,4,5-trimethoxyphenyl)azetidin-2-one]	> 20	> 20	> 20	> 20
